From US5811456A, “Monoamine oxidase B inhibitors, processes for their preparation and use thereof” (priority 1994, dated 1998)
Where two headings read alike, the source gives them in different places.

Experiments:
[1] = background; cited from earlier work
rat brain MAO B = biological target: T1, rat brain MAO B (Rattus norvegicus, UniProt P19643); assay: Inhibitory activity toward rat brain MAO B in vitro (14C-beta-phenylethylamine substrate); type: biochemical
T1 construct: makes it possible to obtain a pellet enriched in mitochondria; from tissue; host or cells: Wistar rat brain without cerebellum, mitochondria-enriched pellet
T1 sequence (P19643 1-520): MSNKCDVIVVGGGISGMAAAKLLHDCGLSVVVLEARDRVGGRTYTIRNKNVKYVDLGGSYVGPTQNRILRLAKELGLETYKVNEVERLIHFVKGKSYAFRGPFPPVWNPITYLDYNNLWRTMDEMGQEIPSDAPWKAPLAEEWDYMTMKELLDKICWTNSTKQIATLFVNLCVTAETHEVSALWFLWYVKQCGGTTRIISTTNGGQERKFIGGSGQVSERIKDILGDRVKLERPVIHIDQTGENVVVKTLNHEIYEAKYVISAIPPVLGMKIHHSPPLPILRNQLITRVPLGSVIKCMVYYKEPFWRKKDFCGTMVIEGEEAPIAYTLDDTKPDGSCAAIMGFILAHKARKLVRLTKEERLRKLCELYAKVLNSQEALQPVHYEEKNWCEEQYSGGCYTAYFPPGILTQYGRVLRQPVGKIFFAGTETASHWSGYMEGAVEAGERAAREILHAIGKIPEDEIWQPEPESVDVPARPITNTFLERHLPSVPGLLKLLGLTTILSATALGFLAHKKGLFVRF

monoamine oxidase B = biological target: T2, monoamine oxidase B (Rattus norvegicus, UniProt P19643); assay: Reversibility of the inhibitory activity toward MAO B (residual activity before and after washing); type: biochemical; settings: mean of 4 assays
T2 construct: from tissue; host or cells: rat brain mitochondria (inferred from section 21.1; not restated in section 21.2)
T2 sequence (P19643 1-520): T1 sequence (P19643 1-520)

[2] = MTT cytotoxicity test on adherent cells; type: cell-based; settings: human, hela ohio cells; for CC50 at 24 h: read-out: LD50 (concentration for which 50% of the cells are killed); for MNTC at 24 h: read-out: MC100 (maximum concentration for which all the cells are alive)
[3] = Cytotoxicity test on the cells in suspension (Trypan blue); type: cell-based; settings: human, daudi cells; for CC50 at 24 h: read-out: LD50 (concentration for which 50% of the cells are killed); for MNTC at 24 h: read-out: MC100 (maximum concentration for which all the cells are alive)
rat brain MAO A = biological target: T3, rat brain MAO A (Rattus norvegicus, UniProt P21396); assay: Inhibitory activity toward rat brain MAO A in vitro (14C-serotonin substrate); type: biochemical
T3 construct: makes it possible to obtain a pellet enriched in mitochondria; from tissue; host or cells: Wistar rat brain without cerebellum, mitochondria-enriched pellet
T3 sequence (P21396 1-526): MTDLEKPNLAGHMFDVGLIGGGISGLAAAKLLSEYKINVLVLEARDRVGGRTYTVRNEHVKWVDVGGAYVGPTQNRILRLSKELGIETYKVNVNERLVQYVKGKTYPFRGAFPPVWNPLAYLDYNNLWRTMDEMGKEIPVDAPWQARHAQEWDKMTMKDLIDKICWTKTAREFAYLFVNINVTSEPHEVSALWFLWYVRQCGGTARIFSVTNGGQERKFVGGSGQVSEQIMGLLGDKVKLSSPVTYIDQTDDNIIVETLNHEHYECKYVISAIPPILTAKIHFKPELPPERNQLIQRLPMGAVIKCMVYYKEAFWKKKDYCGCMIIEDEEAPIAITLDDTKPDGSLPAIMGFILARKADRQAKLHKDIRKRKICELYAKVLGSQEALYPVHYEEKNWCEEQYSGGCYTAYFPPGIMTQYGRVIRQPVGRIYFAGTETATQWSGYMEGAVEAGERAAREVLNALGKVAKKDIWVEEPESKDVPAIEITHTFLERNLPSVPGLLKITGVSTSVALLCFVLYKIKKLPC

MAO A = settings: background; cited from earlier work
[4] = ap: after preincubation (30 minutes, 37° C.), read-out: IC50 MAO B
[5] = wp: without preincubation, read-out: IC50 MAO B
[6] = ap: after preincubation (30 minutes, 37° C.)

SMILES | IC50 (rat brain MAO B; [4]) | IC50 (rat brain MAO B; [5]) | MNTC at 24 h [2] | CC50 at 24 h [3] | MNTC at 24 h [3] | also measured
C#CCN(C)C(C)Cc1ccccc1 (stereo not shown) [Deprenyl] |  |  |  |  |  | antidepressant effects (in words) [1]: lack antidepressant effects
CC(=O)N(CCC#N)N=Cc1ccc(OCc2ccccc2)cc1 [I-a2, 4-(Benzyloxy)benzaldehyde acetyl(2-cyanoethyl)hydrazone] | 0.003 µM | 0.035 µM | 10000 nM | 100 µM | 10 µM | Percentage of residual MAO activity (monoamine oxidase B; after washing, 30 min): 105%; Percentage of residual MAO activity (monoamine oxidase B; before washing, 30 min incubation at 37° C.): 14%; CC50 at 24 h [2]: 100 µM
CC(=O)N(CCC#N)N=Cc1ccc(OCc2ccc(C)cc2)cc1 [I-a2.1] | 0.69 µM | 43 µM |  |  |  | 
CC(=O)N(CCC#N)N=Cc1ccc(OCc2ccc([N+](=O)[O-])cc2)cc1 [I-a2.2] | 1.4 µM | 3 µM | 650 nM | 22 µM | 10 µM | CC50 at 24 h [2]: 30 µM
CC(=O)N(CCC#N)N=Cc1ccc(OCc2ccc(Cl)cc2)cc1 [I-a2.3] | 0.245 µM | 11.3 µM | 600 nM | 50 µM | 10 µM | 
COc1ccc(COc2ccc(C=NN(CCC#N)C(C)=O)cc2)cc1 [I-a2.4] | 2.15 µM | 28 µM | 2300 nM | 65 µM | 12.5 µM | CC50 at 24 h [2]: 40 µM
CC(=O)N(CCC#N)N=Cc1ccc(OCc2ccc(Cl)cc2Cl)cc1 [I-a2.5, 4-[(2,4-Dichlorobenzyl)oxy]benzaldehyde acetyl(2-cyanoethyl)hydrazone] |  |  |  |  |  | IC50 (rat brain MAO B): 0.38 µM; IC50 MAO B (rat brain MAO B; wp: without preincubation): precipitate
CC(=O)N(CCO)N=Cc1ccc(OCc2ccccc2)cc1 [I-a4, 4-(Benzyloxy)benzaldehyde acetyl(2-hydroxyethyl)hydrazone] | 0.0063 µM | 0.028 µM | 10000 nM | 100 µM | 10 µM | IC50 (rat brain MAO A; [6]): 50 µM; IC50 (rat brain MAO A; wp: without preincubation): 50 µM; CC50 at 24 h [2]: 100 µM
CC(=O)N(CCC#N)N=Cc1ccc(OCCc2ccccc2)cc1 [I-a6, 4-(2-Phenylethozy)benzaldehyde acetyl(2-cyanoethyl)hydrazone] | 0.015 µM | 3 µM |  |  |  | IC50 (rat brain MAO A; [6]): 6.8 µM; IC50 (rat brain MAO A; wp: without preincubation): 53 µM
C#CCN(N=Cc1ccc(OCc2ccccc2)cc1)C(C)=O [I-a10, 4-(Benzyloxy)benzaldehyde acetylpropargylhydrazone] | 0.36 µM | 4.1 µM |  |  |  | 
CCOC(=O)N(CCC#N)N=Cc1ccc(OCc2ccccc2)cc1 [I-b2, 4-(Benzylozy)benzaldehyde (2-cyanoethyl)(ethoxycarbonyl)hydrazone] | 6.3 µM | 22 µM |  |  |  | 
CCOC(=O)N(CCO)N=Cc1ccc(OCc2ccccc2)cc1 [I-b4, 4-(Benzyloxy)benzaldehyde (2-hydroxyethyl)(ethoxycarbonyl)hydrazone] | 10 µM | 35 µM |  |  |  | 
CNC(=O)N(CCC#N)N=Cc1ccccc1 [I-c1, Benzaldehyde (2-cyanoethyl)(N-methylcarbamoyl)hydrazone] | 120 µM | 280 µM |  |  |  | 
CNC(=O)N(CCC#N)N=Cc1ccc(OCc2ccccc2)cc1 [I-c2, 4-(benzyloxy)benzaldehyde (2-cyanoethyl)(N-methylcarbamoyl)hydrazone] | 2.5 µM | 1.8 µM |  |  |  | 
C#CCN(C)CCCOc1ccc(Cl)cc1Cl [clorgyline] |  |  |  |  |  | inhibition of MAO A (in words) (MAO A): inhibit MAO A
C#CCN(C)Cc1ccccc1 [pargyline] |  |  |  |  |  | inhibition of MAO A (in words) (MAO A): inhibit MAO A; antidepressant effects (in words) [1]: lack antidepressant effects
